Results taken from patent US20240041042A1, “1-(PYRIDYL)-5-AZINYLPYRAZOLE DERIVATIVES, AND THEIR USE FOR CONTROL OF UNDESIRED PLANT GROWTH” (Bayer Aktiengesellschaft, priority 2020, published 2024).
Where two headings read alike, the source gives them in different places.

What was measured:
Format in all cases: in vivo
[1] = tested on: Amaranthus retroflexus (AMARE); test: Pre-emergence herbicidal action against AMARE; conditions: 320 g/ha, visual scoring after about 3 weeks vs untreated controls
Method in brief: (§1)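 Application rates ran to 320 g/ha or lower, with several dosages tested on the same weeds. The compound, as wettable powder or emulsion concentrate, is sprayed pre-emergence onto soil over sown seeds; greenhouse growth follows, and effect is rated visually after roughly 3 weeks.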

[2] = tested on: Matricaria inodora (MATIN); test: Pre-emergence herbicidal action against MATIN; conditions: dosage 320 g/ha
Method in brief: as §1

Setaria viridis (SETVI) [3] = test: Pre-emergence herbicidal action against SETVI; conditions: dosage 320 g/ha
Method in brief: as §1

Brassica napus (BRSNW) = conditions: 80 g/ha, crop plant compatibility, in comparison to untreated controls
Method in brief: (§2)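 Crop injury rated visually in percent against untreated plants roughly 3 weeks after treatment (0% no effect, 100% plants dead). Compounds, as WP or EC with 0.5% additive in 600 l/ha water, were applied to the covering soil right after sowing; greenhouse growth. Suffixes a, b, c denote different dosages.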

Glycine max (GLXMA) = conditions: pre-emergence, 80 g/ha, crop plant compatibility, in comparison to untreated controls
Method in brief: as §2

Oryza sativa (ORYSA) [4] = conditions: pre-emergence, 80 g/ha, crop plant compatibility, in comparison to untreated controls
Method in brief: as §2

[5] = tested on: Triticum aestivum (TRZAS); conditions: pre-emergence, crop plant compatibility, in comparison to untreated controls
Method in brief: as §2

Zea mays (ZEAMX) [6] = conditions: pre-emergence, 80 g/ha, crop plant compatibility, in comparison to untreated controls
Method in brief: as §2

[7] = tested on: Abutilon theophrasti (ABUTH); test: Post-emergence herbicidal action against ABUTH; conditions: 320 g/ha, visual rating about 3 weeks after treatment vs untreated controls (100% = plants have died, 0% = like control plants)
Method in brief: (§3)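 Doses of 320 g/ha or lower, suffixes a, b and c marking different dosages, were applied post-emergence at the one-leaf stage in 600 l/ha water with 0.5% additive. Damage was assessed visually after about 3 weeks in the greenhouse.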

[8] = tested on: Alopecurus myosuroides (ALOMY); test: Post-emergence herbicidal action against ALOMY; conditions: 320 g/ha, visual rating about 3 weeks after treatment vs untreated controls (100% = plants have died, 0% = like control plants)
Method in brief: as §3

[9] = tested on: Echinochloa crus-galli (ECHCG); test: Post-emergence herbicidal action against ECHCG; conditions: dosage 320 g/ha
Method in brief: as §3

Lolium rigidum (LOLRI) = test: Post-emergence herbicidal action against LOLRI; conditions: dosage 320 g/ha
Method in brief: as §3

[10] = tested on: Pharbitis purpurea (PHBPU); test: Post-emergence herbicidal action against PHBPU
Method in brief: as §3

[11] = tested on: Polygonum convolvulus (POLCO); test: Post-emergence herbicidal action against POLCO
Method in brief: as §3

Setaria viridis (SETVI) [12] = test: Post-emergence herbicidal action against SETVI; conditions: dosage 320 g/ha
Method in brief: as §3

[13] = tested on: Verconica persica (VERPE); test: Post-emergence herbicidal action against VERPE; conditions: 320 g/ha, VERPE
Method in brief: as §3

Oryza sativa (ORYSA) [14] = conditions: crop plant compatibility, 80 g/ha, effect in comparison to untreated controls
Method in brief: (§4)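 Test crops were treated 2 to 3 weeks after sowing, once they reached one leaf, by spraying compound in water with 0.5% additive at 600 l/ha. Visual scoring compared them with untreated controls roughly 3 weeks on, and appendices a, b and c denote different doses.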

[15] = tested on: Triticum aestivum (TRZAS); conditions: crop plant compatibility, 80 g/ha, effect vs untreated controls
Method in brief: as §4

Zea mays (ZEAMX) [16] = conditions: crop plant compatibility, 80 g/ha, effect vs untreated controls
Method in brief: as §4

## CCOC(=O)COc1nn(-c2cccc(C)n2)c(-c2ccc(F)nc2)c1Br [Example I-312]
[1]
  Pre-emergence action against AMARE in %: 90%
[2]
  Pre-emergence action against MATIN in %: 90%
Setaria viridis (SETVI) [3]
  Pre-emergence action against SETVI in %: 90%
Brassica napus (BRSNW)
  Pre-emergence action against BRSNW in %: 20%
Glycine max (GLXMA)
  Pre-emergence action against GLXMA in %: 20%
Oryza sativa (ORYSA) [4]
  Pre-emergence action against ORYSA in %: 20%
[5]; 80 g/ha
  Pre-emergence action against TRZAS in %: 10%
[5]; 320 g/ha
  Pre-emergence action against TRZAS in %: 20%
Zea mays (ZEAMX) [6]
  Pre-emergence action against ZEAMX in %: 20%
[7]
  Post-emergence action against ABUTH in %: 80%
[8]
  Post-emergence action against ALOMY in %: 90%
[9]
  Post-emergence action against ECHCG in %: 90%
Lolium rigidum (LOLRI)
  Post-emergence action against LOLRI in %: 90%
[10]; dosage 80 g/ha
  Post-emergence action against PHBPU in %: 80%
[10]; dosage 320 g/ha
  Post-emergence action against PHBPU in %: 90%
[11]; dosage 80 g/ha
  Post-emergence action against POLCO in %: 80%
[11]; dosage 320 g/ha
  Post-emergence action against POLCO in %: 80%
Setaria viridis (SETVI) [12]
  Post-emergence action against SETVI in %: 80%
[13]
  Post-emergence action against VERPE in %: 80%
Oryza sativa (ORYSA) [14]
  Post-emergence action against ORYSA in %: 10%
[15]
  Post-emergence action against TRZAS in %: 20%
Zea mays (ZEAMX) [16]
  Post-emergence action against ZEAMX in %: 10%
